According to PubChem BioAssay (NCI):
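A five-concentration, 48-hour dose response in 96-well plates underlies each endpoint, interpolated linearly between surrounding concentrations. The concentration for 50% growth inhibition is given as GI50. TGI marks complete inhibition of growth.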

How the values were obtained:
Experiment in all cases: DTP human tumour cell line panel, 48 h
786-0 renal = tested on: 786-0 renal
CCRF-CEM leukemia = tested on: CCRF-CEM leukemia
DU-145 prostate = tested on: DU-145 prostate
HCC-2998 colon = tested on: HCC-2998 colon
HCT-116 colon = tested on: HCT-116 colon
MCF7 breast = tested on: MCF7 breast
NCI-H460 lung = tested on: NCI-H460 lung
NCI-H522 lung = tested on: NCI-H522 lung
RXF 393 renal = tested on: RXF 393 renal
LOX IMVI melanoma = tested on: LOX IMVI melanoma

CS(=O)c1ccc(-c2nc(-c3ccc(F)cc3)c(-c3ccncc3)[nH]2)cc1 (stereo not drawn)
GI50 (786-0 renal): 16.8 µM
TGI (786-0 renal): 38.8 µM
GI50 (CCRF-CEM leukemia): 27.3 µM
TGI (CCRF-CEM leukemia): > 100 µM
GI50 (DU-145 prostate): 31.7 µM
TGI (DU-145 prostate): > 100 µM
GI50 (HCC-2998 colon): 33.6 µM
TGI (HCC-2998 colon): > 89.7 µM
GI50 (HCT-116 colon): 20.1 µM
TGI (HCT-116 colon): > 63.8 µM
GI50 (MCF7 breast): 33.6 µM
TGI (MCF7 breast): > 100 µM
GI50 (NCI-H460 lung): 33.5 µM
TGI (NCI-H460 lung): > 100 µM
GI50 (NCI-H522 lung): 28.8 µM
TGI (NCI-H522 lung): > 85.6 µM
GI50 (RXF 393 renal): 15.7 µM
TGI (RXF 393 renal): 39.3 µM

Cc1[nH]c(=O)nc(CC(O)(c2ccccc2)c2ccccc2)c1-c1ccccc1
TGI (786-0 renal): > 100 µM
TGI (CCRF-CEM leukemia): > 100 µM
TGI (HCC-2998 colon): > 100 µM
TGI (HCT-116 colon): > 100 µM
TGI (LOX IMVI melanoma): > 100 µM
TGI (NCI-H460 lung): > 100 µM
TGI (NCI-H522 lung): > 100 µM
TGI (RXF 393 renal): > 100 µM

CC1CCCN(CC(O)CN2CCCc3ccccc32)C1 (stereo not drawn)
TGI (786-0 renal): > 100 µM
TGI (CCRF-CEM leukemia): > 100 µM
TGI (DU-145 prostate): > 100 µM
TGI (HCT-116 colon): > 100 µM
TGI (LOX IMVI melanoma): > 100 µM
TGI (MCF7 breast): > 100 µM
TGI (NCI-H522 lung): > 100 µM
TGI (RXF 393 renal): > 100 µM

CC(C)CC(CNC(Cc1ccc(Cl)cc1)C(N)=O)NC(=O)C(Cc1cnc[nH]1)NC(=O)CNC(=O)C(NC(=O)C(C)NC(=O)C(Cc1c[nH]c2ccccc12)NC(=O)C(CCC(=O)O)NC(=O)C(N)Cc1ccccc1)C(C)C (stereo not drawn)
TGI (786-0 renal): > 133 µM
TGI (CCRF-CEM leukemia): > 133 µM
TGI (HCC-2998 colon): > 133 µM
TGI (HCT-116 colon): > 133 µM
TGI (NCI-H460 lung): > 133 µM
TGI (RXF 393 renal): > 133 µM

N#CCC(=O)N/N=C1/C(=O)NC(=O)C(=O)C1c1nc2ccccc2s1 (stereo not drawn)
TGI (786-0 renal): > 100 µM
TGI (CCRF-CEM leukemia): > 100 µM
TGI (HCC-2998 colon): > 100 µM
TGI (HCT-116 colon): > 100 µM
TGI (LOX IMVI melanoma): > 100 µM
TGI (NCI-H522 lung): > 100 µM
TGI (RXF 393 renal): > 100 µM

COc1cc(-c2nc(SCC(=O)Nc3ccc(C(C)=O)cc3)[nH]c(=O)c2C#N)cc(OC)c1OC
GI50 (786-0 renal): 41.7 µM
TGI (786-0 renal): > 100 µM
GI50 (CCRF-CEM leukemia): 31.6 µM
TGI (CCRF-CEM leukemia): > 100 µM
GI50 (DU-145 prostate): 62.6 µM
TGI (DU-145 prostate): > 100 µM
GI50 (HCC-2998 colon): > 100 µM
TGI (HCC-2998 colon): > 100 µM
GI50 (HCT-116 colon): 42.1 µM
TGI (HCT-116 colon): > 100 µM
GI50 (LOX IMVI melanoma): 41.7 µM
TGI (LOX IMVI melanoma): > 100 µM
GI50 (MCF7 breast): 40 µM
TGI (MCF7 breast): > 100 µM
GI50 (NCI-H460 lung): 39.1 µM
TGI (NCI-H460 lung): > 100 µM
GI50 (RXF 393 renal): 40.1 µM
TGI (RXF 393 renal): > 100 µM

CCOC(OCC)c1ccc(/C=C/c2cc(OC)c(OC)c(OC)c2)cc1
TGI (786-0 renal): 60.1 µM
TGI (CCRF-CEM leukemia): 37.3 µM
TGI (HCT-116 colon): 30.7 µM
TGI (LOX IMVI melanoma): 25 µM
TGI (NCI-H460 lung): 38.1 µM
TGI (NCI-H522 lung): > 100 µM
TGI (RXF 393 renal): 40.9 µM

CC12CCc3ccccc3C1=Nc1ccccc12 (stereo not drawn)
TGI (786-0 renal): > 100 µM
TGI (CCRF-CEM leukemia): 47.3 µM
TGI (DU-145 prostate): > 100 µM
TGI (HCT-116 colon): > 100 µM
TGI (LOX IMVI melanoma): > 100 µM
TGI (MCF7 breast): > 100 µM
TGI (NCI-H460 lung): > 100 µM
TGI (NCI-H522 lung): > 100 µM
TGI (RXF 393 renal): > 100 µM

COC(=O)C1=C(c2cc(OC)c(OC)c(OC)c2)OC(c2cc(OC)c(OC)c(OC)c2)C1COC(C)=O (stereo not drawn)
TGI (786-0 renal): > 100 µM
TGI (CCRF-CEM leukemia): > 100 µM
TGI (HCC-2998 colon): > 100 µM
TGI (HCT-116 colon): > 100 µM
TGI (LOX IMVI melanoma): 57 µM
TGI (NCI-H460 lung): > 100 µM
TGI (NCI-H522 lung): > 100 µM
TGI (RXF 393 renal): > 100 µM

Cc1ccc(C2SCc3nc4ccc(C(=O)c5ccccc5)cc4n32)cc1 (stereo not drawn)
GI50 (786-0 renal): 13.3 µM
TGI (786-0 renal): 42.2 µM
GI50 (CCRF-CEM leukemia): 23.8 µM
TGI (CCRF-CEM leukemia): > 100 µM
GI50 (DU-145 prostate): 27.9 µM
TGI (DU-145 prostate): 89.6 µM
GI50 (HCT-116 colon): 3.99 µM
TGI (HCT-116 colon): 41.3 µM
GI50 (LOX IMVI melanoma): > 36.7 µM
TGI (LOX IMVI melanoma): > 100 µM
GI50 (MCF7 breast): 11.9 µM
TGI (MCF7 breast): > 76.7 µM
GI50 (NCI-H460 lung): 10.7 µM
TGI (NCI-H460 lung): > 75.6 µM
GI50 (NCI-H522 lung): 7.93 µM
TGI (NCI-H522 lung): 38.2 µM
GI50 (RXF 393 renal): 21.4 µM
TGI (RXF 393 renal): 70.3 µM

CCOC(=O)c1c(C)n(CC(C)C)c2c1cc1oc(=O)c(=O)n3cnc2c13
GI50 (786-0 renal): 20.1 µM
TGI (786-0 renal): > 50 µM
GI50 (DU-145 prostate): 16.3 µM
TGI (DU-145 prostate): > 50 µM
GI50 (HCT-116 colon): 14.8 µM
TGI (HCT-116 colon): > 50 µM
GI50 (LOX IMVI melanoma): 8.45 µM
TGI (LOX IMVI melanoma): 16 µM
GI50 (MCF7 breast): 12.5 µM
TGI (MCF7 breast): 45.3 µM
GI50 (NCI-H460 lung): 16.7 µM
TGI (NCI-H460 lung): > 50 µM
GI50 (NCI-H522 lung): > 50 µM
TGI (NCI-H522 lung): > 50 µM
GI50 (RXF 393 renal): 12.9 µM
TGI (RXF 393 renal): 49.7 µM

O=C(N=Nc1c(O)[nH]c2c(Cl)cc(Cl)cc12)c1ccncc1
TGI (786-0 renal): 36.4 µM
TGI (CCRF-CEM leukemia): > 100 µM
TGI (HCC-2998 colon): > 100 µM
TGI (HCT-116 colon): 39.2 µM
TGI (LOX IMVI melanoma): 42.3 µM
TGI (MCF7 breast): > 100 µM
TGI (NCI-H460 lung): > 100 µM
TGI (RXF 393 renal): 61.4 µM

COc1ccc(/C=C/c2nc(=S)[nH][nH]2)cc1
TGI (786-0 renal): > 100 µM
TGI (CCRF-CEM leukemia): > 100 µM
TGI (HCC-2998 colon): > 100 µM
TGI (HCT-116 colon): > 100 µM
TGI (LOX IMVI melanoma): > 100 µM
TGI (NCI-H460 lung): > 100 µM
TGI (NCI-H522 lung): > 100 µM
TGI (RXF 393 renal): > 100 µM

O=C(CCC(=O)N/N=C/c1ccccc1O)N/N=C/c1ccccc1O
TGI (786-0 renal): > 100 µM
TGI (HCC-2998 colon): > 100 µM
TGI (HCT-116 colon): > 100 µM
TGI (NCI-H522 lung): > 100 µM
TGI (RXF 393 renal): 44.4 µM

CCc1ccc(/C(C)=N/NC(N)=S)cc1
TGI (786-0 renal): > 100 µM
TGI (HCC-2998 colon): > 100 µM
TGI (HCT-116 colon): > 100 µM
TGI (RXF 393 renal): > 100 µM

NC1=NC2(O)c3ccccc3C(=O)C2(O)N1 (stereo not drawn)
TGI (786-0 renal): > 100 µM
TGI (CCRF-CEM leukemia): > 100 µM
TGI (HCT-116 colon): > 100 µM
TGI (LOX IMVI melanoma): > 100 µM
TGI (NCI-H460 lung): > 100 µM
TGI (NCI-H522 lung): > 100 µM
TGI (RXF 393 renal): > 100 µM

COC1(OC)CC2C(=O)N(Cc3ccccc3)C1CC2S(=O)(=O)c1ccccc1 (stereo not drawn)
TGI (786-0 renal): > 100 µM
TGI (CCRF-CEM leukemia): > 100 µM
TGI (HCT-116 colon): > 100 µM
TGI (LOX IMVI melanoma): > 100 µM
TGI (NCI-H460 lung): > 100 µM
TGI (NCI-H522 lung): > 100 µM
TGI (RXF 393 renal): > 100 µM

COc1ccc(/C(Cl)=C(\C=O)c2ccc(Br)cc2)cc1OC
TGI (786-0 renal): > 100 µM
TGI (HCC-2998 colon): > 100 µM
TGI (LOX IMVI melanoma): > 100 µM
TGI (NCI-H460 lung): > 100 µM
TGI (NCI-H522 lung): > 100 µM
TGI (RXF 393 renal): > 100 µM

Cc1ccc(S(=O)(=O)NC(CCC(=O)Nc2ccccc2)C(=O)Nc2ccccc2)cc1 (stereo not drawn)
GI50 (786-0 renal): 0.491 µM
TGI (786-0 renal): 2.04 µM
GI50 (HCT-116 colon): 0.273 µM
TGI (HCT-116 colon): 1.31 µM
GI50 (NCI-H522 lung): 0.276 µM
TGI (NCI-H522 lung): 1.14 µM
GI50 (RXF 393 renal): 0.662 µM
TGI (RXF 393 renal): 2.25 µM

Fc1ccc(F)c(C2SCc3nc4ccccc4n32)c1 (stereo not drawn)
TGI (786-0 renal): > 100 µM
TGI (CCRF-CEM leukemia): > 100 µM
TGI (HCC-2998 colon): > 100 µM
TGI (HCT-116 colon): > 100 µM
TGI (LOX IMVI melanoma): > 100 µM
TGI (NCI-H460 lung): > 100 µM
TGI (NCI-H522 lung): > 100 µM
TGI (RXF 393 renal): > 100 µM

COc1cc2nc(-c3ccc(-n4cncc4-c4ccc(N)cc4)cc3)sc2c(OC)c1OC
GI50 (786-0 renal): 6.26 µM
TGI (786-0 renal): > 100 µM
GI50 (DU-145 prostate): 7.25 µM
TGI (DU-145 prostate): > 100 µM
GI50 (HCT-116 colon): 3.81 µM
TGI (HCT-116 colon): > 100 µM
GI50 (LOX IMVI melanoma): 3.65 µM
TGI (LOX IMVI melanoma): > 100 µM
GI50 (MCF7 breast): 3.02 µM
TGI (MCF7 breast): > 100 µM
GI50 (NCI-H460 lung): 5.13 µM
TGI (NCI-H460 lung): > 100 µM
GI50 (NCI-H522 lung): 2.74 µM
TGI (NCI-H522 lung): 21.6 µM
GI50 (RXF 393 renal): 4.41 µM
TGI (RXF 393 renal): 21.1 µM

Cc1c(C2Cc3ccccc3N2C(=O)/C=C\C(=O)O)c2ccccc2n1C (stereo not drawn)
TGI (786-0 renal): 49.3 µM
TGI (CCRF-CEM leukemia): > 100 µM
TGI (HCC-2998 colon): 39.5 µM
TGI (HCT-116 colon): 94.1 µM
TGI (LOX IMVI melanoma): 32.6 µM
TGI (NCI-H460 lung): > 100 µM
TGI (NCI-H522 lung): 46.4 µM
TGI (RXF 393 renal): 33.1 µM
